Source: patent US6395896B2, “Pyridazine derivatives, manufacturing method and related composition” (Shiseido Co., Ltd., priority 1999, dated 2002)

Experiments:
[1] = Pigment stabilization effect (sequestering agent combination); set-up: key to Sunlight exposure (80 MJ) Appearance: A: No change; B: No almost change; C: Yes change; key to Sunlight exposure (80 MJ) ΔE: color difference ΔE in Lab space vs. color before sunlight exposure; conditions: for Sunlight exposure (80 MJ) Appearance / Sunlight exposure (80 MJ) ΔE: amounts wt %
Procedure: First of all, the photostabilization effect and appearance changes of a composition for each pigment were studied by the following evaluation formulation.
Each test sample was prepared. Observation of appearance changes (visual evaluation) and measurement of color difference (ΔE) were carried out for samples exposed to sunlight (around 80 MJ).
Color difference was measured by Lab coordinate system with spectrophotometer. Color difference was calculated based on the color before sunlight exposure. Namely, from the measured value (L1,a1,b1) before sunlight exposure, color difference (ΔE) was calculated by following formula.

[2] = Drug stabilization effect (sequestering agent combination); set-up: key to Sunlight exposure (80 MJ) Appearance: A: No change; B: No almost change; C: Yes change; conditions: for Sunlight exposure (80 MJ) Appearance / Sunlight exposure (80 MJ) Residual yield [%]: amounts wt %
Procedure: Next, when combined with a sequestering agent, the photostabilization effect and appearance change of a composition for each drug was studied by the following evaluation formulation.
Each test sample was prepared. Appearance change of the samples exposed to sunlight (around 80 MJ) was observed (visual evaluation). Also, residual yield of a drug was measured by liquid chromatography.

[3] = colorant Yellow No. 5 0.001, photostabilizer 0.01, no sequestering agent
[4] = colorant Yellow No. 203 0.001, photostabilizer 0.01 + Sodium metaphosphate 0.02
[5] = colorant Yellow No. 203 0.001, photostabilizer 0.01 + Trisodium ethylenediamine tetraacetate 0.02
[6] = colorant Yellow No. 203 0.001, photostabilizer 0.01 + Trisodium hydroxyethyl ethylenediamine triacetate 0.02
[7] = colorant Yellow No. 203 0.001, photostabilizer 0.01, no sequestering agent
[8] = colorants Red No. 106 0.00001 + Yellow No. 5 0.0001, photostabilizer 0.02 + Trisodium ethylenediamine tetraacetate 0.02
[9] = colorants Red No. 106 0.00001 + Yellow No. 5 0.0001, photostabilizer 0.02, no sequestering agent
[10] = colorants Red No. 106 0.00001 + Yellow No. 203 0.0001, photostabilizer 0.02 + Trisodium hydroxyethyl ethylenediamine triacetate 0.02
[11] = colorants Red No. 106 0.00001 + Yellow No. 203 0.0001, photostabilizer 0.02, no sequestering agent
[12] = colorants Red No. 213 0.00001 + Blue No. 1 0.00001, photostabilizer 0.02 + Trisodium hydroxyethyl ethylenediamine triacetate 0.03
[13] = colorants Red No. 213 0.00001 + Blue No. 1 0.00001, photostabilizer 0.02, no sequestering agent
[14] = colorants Red No. 227 0.0001 + Yellow No. 5 0.0001, photostabilizer 0.02 + Trisodium ethylenediamine tetraacetate 0.02
[15] = colorants Red No. 227 0.0001 + Yellow No. 5 0.0001, photostabilizer 0.02, no sequestering agent
[16] = colorants Red No. 227 0.0001 + Yellow No. 203 0.0001, photostabilizer 0.05 + Sodium metaphosphate 0.02
[17] = colorants Red No. 227 0.0001 + Yellow No. 203 0.0001, photostabilizer 0.05, no sequestering agent
[18] = colorants Red No. 401 0.0001 + Blue No. 1 0.00001, photostabilizer 0.02 + Trisodium ethylenediamine tetraacetate 0.03
[19] = colorants Red No. 401 0.0001 + Blue No. 1 0.00001, photostabilizer 0.02, no sequestering agent
[20] = colorants Red No. 401 0.0001 + Green No. 3 0.00001, photostabilizer 0.02 + Sodium metaphosphate 0.03
[21] = colorants Red No. 401 0.0001 + Green No. 3 0.00001, photostabilizer 0.02, no sequestering agent
[22] = colorants Yellow No. 203 0.0001 + Yellow No. 5 0.0001, photostabilizer 0.02 + Sodium metaphosphate 0.01
[23] = colorants Yellow No. 203 0.0001 + Yellow No. 5 0.0001, photostabilizer 0.02, no sequestering agent
[24] = drug 2-o-α-α-glucopyranosyl-L-ascorbic acid 2.0, photostabilizer 0.03 + Sodium metaphosphate 0.03
[25] = drug 2-o-α-α-glucopyranosyl-L-ascorbic acid 2.0, photostabilizer 0.03, no sequestering agent
[26] = drug Dibutylhydroxytoluene 0.01, photostabilizer 0.03 + Sodium metaphosphate 0.03
[27] = drug Dibutylhydroxytoluene 0.01, photostabilizer 0.03, no sequestering agent
[28] = drug Dipotassium glycyrrhizinate 0.05, photostabilizer 0.03 + Sodium metaphosphate 0.03
[29] = drug Dipotassium glycyrrhizinate 0.05, photostabilizer 0.03, no sequestering agent
[30] = drug L-ascorbic acid 2-(dl-α-tocopheryl hydrogen phosphate) potassium salt 0.01, photostabilizer 0.03 + Trisodium hydroxyethyl ethylenediamine triacetate 0.03
[31] = drug L-ascorbic acid 2-(dl-α-tocopheryl hydrogen phosphate) potassium salt 0.01, photostabilizer 0.03, no sequestering agent
[32] = drug Salicylic acid 0.1, photostabilizer 0.03 + Trisodium ethylenediamine tetraacetate 0.03
[33] = drug Salicylic acid 0.1, photostabilizer 0.03, no sequestering agent

melting point: 256 to 257 °C (dec.)
SMILES: Oc1nncc(N2CCOCC2)c1N1CCOCC1 [4,5-Dimorpholino-3-hydroxypyridazine]
Sunlight exposure (80 MJ) Appearance [1, 3]: B | Sunlight exposure (80 MJ) ΔE [1, 3]: 0.61 | Sunlight exposure (80 MJ) Appearance [1, 4]: A | Sunlight exposure (80 MJ) ΔE [1, 4]: 0.22 | Sunlight exposure (80 MJ) Appearance [1, 5]: A | Sunlight exposure (80 MJ) ΔE [1, 5]: 0.28 | Sunlight exposure (80 MJ) Appearance [1, 6]: A | Sunlight exposure (80 MJ) ΔE [1, 6]: 0.25 | Sunlight exposure (80 MJ) Appearance [1, 7]: B | Sunlight exposure (80 MJ) ΔE [1, 7]: 0.95 | Sunlight exposure (80 MJ) Appearance [1, 8]: A | Sunlight exposure (80 MJ) ΔE [1, 8]: 0.98 | Sunlight exposure (80 MJ) Appearance [1, 9]: B | Sunlight exposure (80 MJ) ΔE [1, 9]: 1.33 | Sunlight exposure (80 MJ) Appearance [1, 10]: A | Sunlight exposure (80 MJ) ΔE [1, 10]: 0.75 | Sunlight exposure (80 MJ) Appearance [1, 11]: A | Sunlight exposure (80 MJ) ΔE [1, 11]: 1.10 | Sunlight exposure (80 MJ) Appearance [1, 12]: A | Sunlight exposure (80 MJ) ΔE [1, 12]: 1.22 | Sunlight exposure (80 MJ) Appearance [1, 13]: B | Sunlight exposure (80 MJ) ΔE [1, 13]: 1.88 | Sunlight exposure (80 MJ) Appearance [1, 14]: A | Sunlight exposure (80 MJ) ΔE [1, 14]: 0.71 | Sunlight exposure (80 MJ) Appearance [1, 15]: B | Sunlight exposure (80 MJ) ΔE [1, 15]: 1.02 | Sunlight exposure (80 MJ) Appearance [1, 16]: A | Sunlight exposure (80 MJ) ΔE [1, 16]: 1.01 | Sunlight exposure (80 MJ) Appearance [1, 17]: A | Sunlight exposure (80 MJ) ΔE [1, 17]: 1.55 | Sunlight exposure (80 MJ) Appearance [1, 18]: A | Sunlight exposure (80 MJ) ΔE [1, 18]: 0.88 | Sunlight exposure (80 MJ) Appearance [1, 19]: A | Sunlight exposure (80 MJ) ΔE [1, 19]: 1.36 | Sunlight exposure (80 MJ) Appearance [1, 20]: A | Sunlight exposure (80 MJ) ΔE [1, 20]: 0.73 | Sunlight exposure (80 MJ) Appearance [1, 21]: B | Sunlight exposure (80 MJ) ΔE [1, 21]: 1.45 | Sunlight exposure (80 MJ) Appearance [1, 22]: A | Sunlight exposure (80 MJ) ΔE [1, 22]: 0.48 | Sunlight exposure (80 MJ) Appearance [1, 23]: A | Sunlight exposure (80 MJ) ΔE [1, 23]: 0.78 | color difference ΔE ([1]; with a sequestering agent, compared with compositions not having a sequestering agent, Tables 24 to 26): very small | change of appearance of the composition ([1]; with a sequestering agent, Tables 24 to 26): small | Sunlight exposure (80 MJ) Appearance [2, 24]: A | Sunlight exposure (80 MJ) Residual yield [%] [2, 24]: 99.3% | Sunlight exposure (80 MJ) Appearance [2, 25]: A | Sunlight exposure (80 MJ) Residual yield [%] [2, 25]: 98.3% | Sunlight exposure (80 MJ) Appearance [2, 26]: A | Sunlight exposure (80 MJ) Residual yield [%] [2, 26]: 98.8% | Sunlight exposure (80 MJ) Appearance [2, 27]: B | Sunlight exposure (80 MJ) Residual yield [%] [2, 27]: 95.8% | Sunlight exposure (80 MJ) Appearance [2, 28]: A | Sunlight exposure (80 MJ) Residual yield [%] [2, 28]: 100.0% | Sunlight exposure (80 MJ) Appearance [2, 29]: A | Sunlight exposure (80 MJ) Residual yield [%] [2, 29]: 97.2% | Sunlight exposure (80 MJ) Appearance [2, 30]: A | Sunlight exposure (80 MJ) Residual yield [%] [2, 30]: 99.4% | Sunlight exposure (80 MJ) Appearance [2, 31]: B | Sunlight exposure (80 MJ) Residual yield [%] [2, 31]: 98.5% | Sunlight exposure (80 MJ) Appearance [2, 32]: A | Sunlight exposure (80 MJ) Residual yield [%] [2, 32]: 100.1% | Sunlight exposure (80 MJ) Appearance [2, 33]: B | Sunlight exposure (80 MJ) Residual yield [%] [2, 33]: 99.2% | residual yield of a drug ([2]; with a sequestering agent, compared with compositions without, Table 30): very small
